What was measured:
[1] = test system: UFH; assay: Neutralization of UFH in human plasma measuring factor Xa (chromogenic Coatest Heparin); assay type: biochemical; details: UFH and antidote 0.4 μg/mL, human plasma 15 min 37°C
Procedure: (§1) Activated partial thromboplastin time (aPTT) and anti-Xa activity were measured on the freshly isolated plasma using respectively a coagulometer (BCT; Dade Behring—Siemens) and a Microplate reader (Anthos HT3, type 12600). STA-C.K. Prest*2 kit was used. Coatest kit was used to evaluate the concentration of low molecular weight heparin in blood plasma following the reactions depicted below: LMW Heparin+AT→[LMW Heparin·AT] [LMW Heparin·AT]+FXa(excess)→[LMW Heparin·AT·FXa] 2a. S-2222+FXa→Peptide+pNA (yellow)+FXa(residual) 2b.
Where FXa represents factor Xa and S-2222 represents Bz-Ile-Glu-(γ-OR)-Gly-Arg-pNA (CA: 59068-47-2) (SEQ ID No. 1), a chromogenic substrate cleaved by free FXa to peptide (Bz-Ile-Glu-(γ-OR)-Gly-Arg (SEQ ID No. 2)) and pNA (p-nitroaniline). AT represents antithrombin. Heparin binds to AT, causing a change in the conformation of AT to a form that binds to and sequesters the activity of FXa. Addition of a peptide that competes with AT for heparin will increase the concentration of free FXa. Thus, restoration of the activity of FXa, as indicated by the amount of S-2222 converted to peptide and pNA, provides a measure of the ability of a peptide to neutralize the anticoagulant activity of heparin (provided in technical sheet of Instrumentation Laboratory).
The assay method was calibrated using standard solutions that contain 0.1 μg/mL of AT and heparin at concentrations ranging from 0.01 to 0.07 μg/mL in buffer/normal human plasma supplied with the Coatest kit. The standard solutions were incubated at 37° C. for 3-4 minutes, after which 100 μL of bovine factor Xa (0.71 nkat) were added to 200 μL of each standard solution. The mixtures were incubated at 37° C. for 30 sec, after which 200 μL of S-2222 (0.2 μmol, 37° C.) were added and the reaction mixtures were incubated at 37° C. for exactly 3 minutes. […] The absorbance was measured at 405 nm. The ability of CLC1 and CLC2 to neutralize the anticoagulant activity of heparin was determined by addition of each polymer to heparin solution, and the assay performed as described above. […]

[2] = test system: UFH; assay: Neutralization of UFH in whole blood of patients heparinized in vivo (extracorporeal circulation), aPTT test; assay type: biochemical, human
Procedure: In example 10, several (co-)polymers of formula (I), namely two linear homopolymers of PDMAEMA (samples CS023 and CK169) and two copolymers of PDMAEMA and PEO (samples A61 and BA003) were tested for neutralization of UFH injected on human patients subjected to ExtraCorporeal Circulation (ECC) during a cardiovascular surgical operation. According to the general practice in this clinical context, a fixed dose of 3 mg/kg of UFH is administrated to these patients by intravenous injection.
10 min after this dose injection of UFH, 40 ml of whole blood were collected from the patients. In vitro UFH neutralization was conducted less than 1 hour after blood collection adding one of the (co-)polymers listed in Table 7. The concentration of these polymers ranged from 3.4 to 45 μg/mL in whole blood. A special care was taken during the addition of (co-)polymer solutions in view to ensure a rapid and reproducible homogenization of these (co-)polymers in whole human blood (rapid injection of the solution in whole human blood, i.e. in less than 1 s), followed directly by 3 up-and-down aspirations to avoid any risk of local over-concentrations.
After a 15 minutes incubation period performed at 37° C. under lateral agitation the aPTT test was carried out immediately in order to determine the residual UFH activity. The neutralization effectiveness of the different homopolymers and copolymers and of protamine was estimated from the determination of CMax, i.e. the minimal polymer concentration giving rise to a maximum neutralization of UFH. Therapeutic index (Thind) of the (co-)polymers was established as the drug concentration window giving a pharmacological effect without impairing the coagulation pathways. The mean and standard deviations corresponding to these 3 parameters were calculated from 4 independent experiments performed on senior blood patients.

[3] = test system: LMWH; assay: Neutralization of LMWH in human plasma measuring factor Xa (chromogenic Coatest Heparin); assay type: biochemical; details: LMWH and antidote 0.4 μg/mL each, human plasma 15 min 37°C
Procedure: as §1, with “2b. […]” for “2b.”
The assay method was calibrated using standard solutions that contain 0.1 μg/mL of AT and heparin at concentrations ranging from 0.01 to 0.07 μg/mL in buffer/normal human plasma supplied with the Coatest kit. […] The absorbance was measured at 405 nm. The ability of CLC1 and CLC2 to neutralize the anticoagulant activity of heparin was determined by addition of each polymer to heparin solution, and the assay performed as described above.
The complexation of the synthetic polymers of formula (I) with low molecular weight heparin (LMWH) was assessed in vitro in the same experimental conditions as for UFH, thus using a concentration of heparin and polymers of formula (I) of 0.4 μg/mL. After their incubation of 15 minutes at 37° C., the remaining activity of factor Xa is recorded with the chromogenic assay Coatest Heparin.

[4] = test system: UFH; assay: Neutralization of UFH in human plasma, aPTT test; assay type: biochemical; details: for percentage of neutralization of UFH, mean: antidote 2 μg/mL, plasma spiked with UFH 2 μg/mL, 15 min 37°C
Procedure: as §1
All PECs were prepared by addition of 100 μL of heparin (10 μg/mL) to 300 μL of plasma. After a pre-incubation of 5 minutes at 37° C., 100 μL of a stock solution of polymers of formula (I) (10 μg/mL) was added to neutralize heparin. After 15 minutes of interaction 37° C. the aPTT analysis was performed. Anti Xa analysis was evaluated according to a similar procedure, except for the final concentrations of heparin and polymer of formula (I) which were […].
In view to assess the pharmacological activity of the polymers of formula (I) to neutralize the action of UFH, polymers of formula (I) were incubated in normal human plasma previously spiked with heparin, analysing afterwards the remaining coagulation activity of plasma using the activated partial thromboplastin time (aPTT) test. This bioassay was indeed typically used to analyse the functionality of the intrinsic pathway of the blood coagulation, using kaolin as synthetic activator of the coagulation. An incubation of 15 min at 37° C. was respected before measuring the aPPT test. The percentage of heparin neutralization in plasma (FIG. 4) was calculated using two different calibration curves of heparin in function of the group age of the donors. Indeed a difference in heparin sensitivity was noticed with aPPT test as a function of the range of age of human donors. Accordingly, two calibration curves of heparin were used, corresponding to the two categories of blood donors: group 1 (average age: 22 years) and group 2 (average age: 52 years).

[5] = test system: UFH; assay: Dose-response curve for UFH neutralization in human blood plasma, aPTT bioassay; assay type: biochemical; details: UFH 2 μg/mL in plasma, polymer 1 to 3 μg/mL
Procedure: In view to assess a possible difference in affinity between polymers of formula (I) and heparin versus protamine/heparin, dose-response curves were established, corresponding to a progressive titration of heparin action by increasing concentration of the polymers of formula (I) with aPPT bioassay (FIG. 5). This in vitro study was conducted adopting a fixed plasma concentration of UFH of 2 μg/mL added before the incubation with the polymers of formula (I). The concentration of the polymers of formula (I) was varied from 1 to 3 μg/mL. The mean and standard deviations (SD) were calculated from two independent experiments performed on senior blood donors.

[6] = test system: UFH; assay: Dose-response UFH neutralization in whole human blood, aPTT test; assay type: biochemical; details: Table 4, UFH 2 μg/mL whole blood
Procedure: In Example 9 several (co-)polymers of formula (I) were tested for neutralization of UFH in whole blood. Dose-response curves were established adopting a fixed concentration of 2 μg/mL UFH added in whole blood collected on sodium citrate. Five minutes after this preconditioning step, UFH neutralization was conducted by adding one of the (co-)polymers listed in Table 4 to 6. The concentration of these polymers was varied from 0.5 to 4 μg/mL in—whole blood. A special care was taken during the addition of the (co-)polymer solution in view to assure a rapid and reproducible homogenization of this solution in whole blood (rapid injection of solution in whole blood, i.e. in less than 1 s), followed directly by 3 up-and-down aspirations to avoid any risk of local over-concentrations. The total dilution arising from the UHF and polymer solutions represents only 10% to avoid any interference with coagulation pathways.
After a 15 minutes incubation period performed at 37° C. under lateral agitation the aPTT test was carried out immediately afterwards in order to determine the residual UFH activity. […] The mean and standard deviations were calculated from two independent experiments performed on senior blood donors initially collected under sodium citrate.

**Q.** Protamine was tested. Which “percentage of inhibition of factor Xa, mean” value ([1]; Test number 1) did it give?
**A.** 88.1%

**Q.** What about the “percentage of inhibition of factor Xa, mean” value ([1]; Test number 2) of the same substance?
**A.** 100.0%

**Q.** What about the “mean inhibition of factor Xa” value ([1]; mean of two independent experiments) of the same substance?
**A.** 94.0%

**Q.** What about the “aPTT at CMax” value ([2]; blood of patients given 3 mg/kg UFH) of the same substance?
**A.** 42.7 s

**Q.** And the CMax ([2]; minimal polymer concentration giving maximum neutralization of UFH, patients given 3 mg/kg UFH)?
**A.** 22.5 µg/mL

**Q.** And the aPTT response ([2]; protamine concentration of 45 μg/mL)?
**A.** below 70 s

**Q.** And the “percentage of inhibition of factor Xa (inhibition of heparin), mean” value [3]?
**A.** 31.0%

**Q.** What about the “percentage of neutralization of heparin” value ([4]; 15 minutes after addition of the polymers, human plasma (FIG. 4)) of the same substance?
**A.** 75%

**Q.** And the “percentage of neutralization of UFH, mean” value ([4]; Group 1 donors (average age 22 years))?
**A.** 75.0%

**Q.** What about the “percentage of neutralization of UFH, mean” value ([4]; Group 2 donors (average age 52 years)) of the same substance?
**A.** 76.1%

**Q.** What about the “concentration at the maximum of the heparin neutralization curve” value [5] of the same substance?
**A.** around 1.6 μg/mL

**Q.** What about the CMax ([6]; minimal polymer concentration giving saturation in UFH neutralization) of the same substance?
**A.** 3.00 µg/mL

**Q.** And the IC50 ([6]; polymer concentration leading to 50% of maximal capacity to neutralize UFH)?
**A.** 1.05 µg/mL

Source: patent US9616089B2, “Polymeric synthetic antidote” (Universite de Liege, priority 2013, dated 2017)
